From patent US20240376099A1, “COMPOUNDS AND COMPOSITIONS AS INHIBITORS OF ENDOSOMAL TOLL-LIKE RECEPTORS” (Novartis AG, priority 2016, published 2024)

Molecular target: T1, TLR9 (Homo sapiens, UniProt Q9NR96)
T1 construct: Fresh blood was collected from normal human donors; endogenous in cells; host or cells: human PBMCs from fresh donor blood
T1 sequence (Q9NR96 26-1032): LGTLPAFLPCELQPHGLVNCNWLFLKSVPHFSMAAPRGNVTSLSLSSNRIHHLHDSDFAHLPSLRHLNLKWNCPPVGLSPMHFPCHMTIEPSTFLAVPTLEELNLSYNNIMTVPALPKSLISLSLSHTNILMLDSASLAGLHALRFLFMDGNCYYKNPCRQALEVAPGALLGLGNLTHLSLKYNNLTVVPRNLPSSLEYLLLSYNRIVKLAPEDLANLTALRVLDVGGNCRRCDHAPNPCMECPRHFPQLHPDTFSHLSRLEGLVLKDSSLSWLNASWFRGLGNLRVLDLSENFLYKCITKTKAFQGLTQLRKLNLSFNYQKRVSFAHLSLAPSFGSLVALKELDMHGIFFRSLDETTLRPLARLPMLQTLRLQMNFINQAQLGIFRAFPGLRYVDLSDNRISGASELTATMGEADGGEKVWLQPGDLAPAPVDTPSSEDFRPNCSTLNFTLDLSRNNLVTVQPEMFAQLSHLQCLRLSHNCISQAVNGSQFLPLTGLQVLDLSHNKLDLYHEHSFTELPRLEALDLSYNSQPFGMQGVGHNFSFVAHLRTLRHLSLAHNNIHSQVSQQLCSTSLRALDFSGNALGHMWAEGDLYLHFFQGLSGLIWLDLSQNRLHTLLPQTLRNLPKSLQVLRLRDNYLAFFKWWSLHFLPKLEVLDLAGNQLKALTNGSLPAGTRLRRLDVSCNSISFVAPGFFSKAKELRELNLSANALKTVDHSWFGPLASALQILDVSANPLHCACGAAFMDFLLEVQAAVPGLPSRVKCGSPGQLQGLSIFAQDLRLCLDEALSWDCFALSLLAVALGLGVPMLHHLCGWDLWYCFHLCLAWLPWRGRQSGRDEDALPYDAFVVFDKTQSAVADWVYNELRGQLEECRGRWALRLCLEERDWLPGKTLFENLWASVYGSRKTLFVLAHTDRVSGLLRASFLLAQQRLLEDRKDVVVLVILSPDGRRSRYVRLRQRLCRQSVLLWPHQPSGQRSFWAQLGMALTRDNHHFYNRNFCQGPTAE
Assay: huPBMC TLR9 Antagonist IFNα Assay
Assay type: cell-based
Details: human PBMCs stimulated with ODN2216 0.3 μM, 14-16 hrs; IFNα2b AlphaLISA read-out
Experimental: Compounds were generally serially diluted (1/3) in DMSO and plated on sterile 384 well tissue culture plates and stored until ready for use. Each ten-point dilution was typically plated in triplicate in parallel rows.
Fresh blood was collected from normal human donors underwritten informed consent in heparinized syringes on the morning of the assay. The blood was diluted in RPMI-1640 medium and the white blood cells were separated from red blood cells by centrifugation (800 g 15′ 0 acceleration, 0 brake) on a Ficoll cushion. Peripheral blood mononuclear cells (PBMCs) were separated from platelets by a series of low-speed centrifugations (1000RPM 10′) in PBS+5% HI—FBS and 1 mM EDTA. Purified PBMCs were re-suspended in assay medium (RPMI-1640 w Glutamax (Invitrogen) supplemented with 5% HI—FBS, 10 mM HEPES, 50 uM β-mercaptoethanol, and 100 mG/L penicillin/streptomycin cocktail). Viable PBMCs were counted on a hemacytometer and kept on ice until ready for plating.
A 4× concentration (4 ug/ml or 40 ug/ml for TLR8 or TLR7 assays, respectively) of the TLR7/8 agonist ssRNA40 (IDT) was complexed with 10% DOTAP (Roche) in assay medium for 30 min prior to addition to the PBMC suspension (5 million cells/ml). After addition, the final concentration of ssRNA40 in the TLR7/8 stimulated PBMC suspension was 1 μg/ml for TLR8 assay, and 10 μg/mL for the TLR7 assay. The final DOTAP concentration was 2.5%. Diluted PBMCs (5 million cells/ml) were treated with 4×TLR9 agonist ODN2216 (Invivogen). Final concentration of ODN2216 in TLR9 stimulated PBMC suspension was 0.3 μM.
Agonist stimulated PBMCs were plated on the compound treated 384 well plates at 150,000 cells/well. Un-stimulated PBMCs were plated as controls on each plate. Plating volume was 40 μL per well. DMSO concentration in each well was 0.25%.
A separate plate, without compounds, with titrations of ssRNA40 and ODN2216 was included in every assay to measure agonist response of each donor's PBMC prep. Assay plates were placed in a tissue culture incubator (37° C., 5% CO2) for 14-16 hrs. After this incubation, the plates were centrifuged and stored at −20° C. until they were assayed.
IL-6 TR-FRET Assay for TLR8 activity: • 1) Cisbio Human IL-6 kit, 20,000 tests (62TNFPEC), and GNF High-Base TC 384 well plates (cat #789163G) were used; • 2) the Anti-TIL-6 Cryptate conjugate and the Anti-IL-6 XL665 conjugate were diluted 1:20 in Reconstitution Buffer; • 3) a 1:1 mixture of 3 μl/well Anti-IL-6 Cryptate conjugate and 3 μl/well Anti-IL-6 XL665 conjugate was prepared; • 4) 6 μl/well HTRF dilution mastermix was added to 6 μl of transferred supernatant samples in proxiplates; • 5) The plates were incubated for 3 hrs at rt in the dark; and • 6) the levels of IL-6 production was measured using an Envision plate reader (665 nm (emmission)/590 nm (excitation)) with HTRF settings and ratiometric read-out: (XL665 emission/Eu Cryptate emission)×10,000. IFNα2b AlphaLISA Assay for TLR7 or TLR9 activity After thawing the assay plates, 6 μL of supernatant samples were transferred to a low-volume AlphaPlate 384SW (Perkin-Elmer). The concentration of IFNα in supernatants was measured using the IFNα2b AlphaLISA Assay (Perkin-Elmer: AL297F). 3 μL of IFNα acceptor beads/biotinylated antibody solution was added first, using laboratory automation. After an hour incubation, […] of streptavidin […] bead solution was added. The plates containing this mixture were incubated in the dark for an hour and read on an appropriate plate reader at reading parameters set by the manufacturer. (Envision, EnSpire: Perkin-Elmer).

Row | SMILES | IC50
1 | Cn1ncc2c(N3CCc4c(cnn4CC45CCC(N)(CC4)CC5)C3)nc(N)nc21 [compound 11, 4-(1-((4-aminobicyclo[2.2.2]octan-1-yl)methyl)-6,7-dihydro-1H-pyrazolo[4,3-c]pyridin-5(4H)-yl)-1-methyl-1H-pyrazolo[3,4-d]pyrimidin-6-amine] | > 6.58 µM
2 | Cn1ncc2c(N3CCc4nn(CC56CCC(N)(CC5)CC6)cc4C3)nc(N)nc21 [compound 12, 4-(2-((4-aminobicyclo[2.2.2]octan-1-yl)methyl)-6,7-dihydro-2H-pyrazolo[4,3-c]pyridin-5(4H)-yl)-1-methyl-1H-pyrazolo[3,4-d]pyrimidin-6-amine] | > 4.96 µM
3 | Cc1nn(CC23CCC(N)(CC2)CC3)c2c1CN(c1nc(N)nc3c1cnn3C)CC2 [compound 13, 4-(1-((4-aminobicyclo[2.2.2]octan-1-yl)methyl)-3-methyl-6,7-dihydro-1H-pyrazolo[4,3-c]pyridin-5(4H)-yl)-1-methyl-1H-pyrazolo[3,4-d]pyrimidin-6-amine] | 7.75 µM
4 | Cc1c2c(nn1CC13CCC(N)(CC1)CC3)CCN(c1nc(N)nc3c1cnn3C)C2 [compound 14, 4-(2-((4-aminobicyclo[2.2.2]octan-1-yl)methyl)-3-methyl-6,7-dihydro-2H-pyrazolo[4,3-c]pyridin-5(4H)-yl)-1-methyl-1H-pyrazolo[3,4-d]pyrimidin-6-amine] | > 9.09 µM
5 | Cc1nc(N2CCc3c(c(C)nn3CC34CCC(N5CCCC5)(CC3)CC4)C2)c2cnn(C)c2n1 [compound 16, 1,6-dimethyl-4-(3-methyl-1-((4-(pyrrolidin-1-yl)bicyclo[2.2.2]octan-1-yl)methyl)-6,7-dihydro-1H-pyrazolo[4,3-c]pyridin-5(4H)-yl)-1H-pyrazolo[3,4-d]pyrimidine] | > 10 µM
6 | COCCNC12CCC(Cn3nc(C)c4c3CCN(c3nc(C)nc5c(C)nn(C)c35)C4)(CC1)CC2 [compound 18, N-(2-methoxyethyl)-4-((3-methyl-5-(1,3,5-trimethyl-1H-pyrazolo[4,3-d]pyrimidin-7-yl)-4,5,6,7-tetrahydro-1H-pyrazolo[4,3-c]pyridin-1-yl)methyl)bicyclo[2.2.2]octan-1-amine] | > 10 µM
7 | Cc1nc(N2CCc3c(c(C)nn3CC34CCC(N5CCOCC5)(CC3)CC4)C2)c2cnn(C)c2n1 [compound 19, 4-(4-((5-(1,6-dimethyl-1H-pyrazolo[3,4-d]pyrimidin-4-yl)-3-methyl-4,5,6,7-tetrahydro-1H-pyrazolo[4,3-c]pyridin-1-yl)methyl)bicyclo[2.2.2]octan-1-yl)morpholine] | > 10 µM
8 | Cc1nc(N2CCc3c(c(C)nn3CC34CCC(NCC5COC5)(CC3)CC4)C2)c2c(n1)c(C)nn2C [compound 23, 4-((3-methyl-5-(1,3,5-trimethyl-1H-pyrazolo[4,3-c]pyrimidin-7-yl)-4,5,6,7-tetrahydro-1H-pyrazolo[4,3-c]pyridin-1-yl)methyl)-N-(oxetan-3-ylmethyl)bicyclo[2.2.2]octan-1-amine] | > 10 µM
9 | Cc1nc(N2CCc3c(c(C)nn3CC34CCC(NC(=O)CCN(C)C)(CC3)CC4)C2)c2c(n1)c(C)nn2C [compound 24, 3-(dimethyalmino)-N-(4-((3-methyl-5-(1,3,5-trimethyl-1H-pyrazolo[4,3-d]pyrimidin-7-yl)-4,5,6,7-tetrahydro-1H-pyrazolo[4,3-c]pyridin-1-yl)methyl)bicyclo[2.2.2]octan-1-yl)propanamide] | > 7.38 µM
10 | Cc1nc(N2CCc3c(c(C)nn3CC34CCC(NC5CCC5)(CC3)CC4)C2)c2c(n1)c(C)nn2C [compound 27, N-cyclobutyl-4-((3-methyl-5-(1,3,5-trimethyl-1H-pyrazolo[4,3-d]pyrimidin-7-yl)-4,5,6,7-tetrahydro-1H-pyrazolo[4,3-c]pyridin-1-yl)methyl)bicyclo[2.2.2]octan-1-amine] | > 10 µM

The remaining lines, values ahead:

Row | IC50 | SMILES
11 | 1.27 µM | Cc1nn(CC23CCC(N)(CC2)CC3)c2c1CN(c1nc(Cl)nc3cnn(C)c13)CC2 [compound 15, 4-((5-(5-chloro-1-methyl-1H-pyrazolo[4,3-d]pyrimidin-7-yl)-3-mehtyl-4,5,6,7-tetrahydro-1H-pyrazolo[4,3-c]pyridin-1-yl)methyl)bicyclo[2.2.2]octan-1-amine]
12 | > 10 µM | Cc1nc(N2CCc3c(c(C)nn3CC34CCC(N5CCCC5)(CC3)CC4)C2)c2c(n1)c(C)nn2C [compound 17, 1,3,5-trimethyl-7-(3-methyl-1-((4-(pyrrolidin-1-yl)bicyclo[2.2.2]octan-1-yl)methyl)-6,7-dihydro-1H-pyrazolo[4,3-c]pyridin-5(4H)-yl)-1H-pyrazolo[4,3-d]pyrimidine]
13 | > 9.38 µM | CCNCC(=O)NC12CCC(Cn3nc(C)c4c3CCN(c3nc(C)nc5[nH]ncc35)C4)(CC1)CC2 [compound 20, 2-(ethylamino)-N-(4-((3-methyl-5-(6-methyl-1H-pyrazolo[3,4-d]pyrimidin-4-yl)-4,5,6,7-tetrahydro-1H-pyrazolo[4,3-c]pyridin-1-yl)methyl)bicyclo[2.2.2]octan-1-yl)acetamide]
14 | > 10 µM | Cc1nc(N2CCc3c(c(C)nn3CC34CCC(N5CCOCC5)(CC3)CC4)C2)c2cn[nH]c2n1 [compound 21, 4-(4-((3-methyl-5-(6-methyl-1H-pyrazolo[3,4-d]pyrimidin-4-yl)-4,5,6,7-tetrahydro-1H-pyrazolo[4,3-c]pyridin-1-yl)methyl)bicyclo[2.2.2]octan-1-yl)morpholine]
15 | > 10 µM | CCNCC(=O)NC12CCC(Cn3nc(C)c4c3CCN(c3nc(C)nc5c(C)nn(C)c35)C4)(CC1)CC2 [compound 22, 2-(ethylamino)-N-(4-((3-methyl-5-(1,3,5-trimethyl-1H-pyrazolo[4,3-c]pyrimidin-7-yl)-4,5,6,7-tetrahydro-1H-pyrazolo[4,3-c]pyridin-1-yl)methyl)bicyclo[2.2.2]octan-1-yl)acetamide]
16 | > 8.08 µM | Cc1nc(N2CCc3c(c(C)nn3CC34CCC(N5CCOCC5)(CC3)CC4)C2)c2c(n1)c(C)nn2C [compound 25, 4-(4-((3-methyl-5-(1,3,5-trimethyl-1H-pyrazolo[4,3-d]pyrimidin-7-yl)-4,5,6,7-tetrahydro-1H-pyrazolo[4,3-c]pyridin-1-yl)methyl)bicyclo[2.2.2]octan-1-yl)morpholine]
